Where no end group is shown, it is not given here.

Here are results for 1 substance from PMC7555312, “Functional Characterization of Temporin-SHe, a New Broad-Spectrum Antibacterial and Leishmanicidal Temporin-SH Paralog from the Sahara Frog (Pelophylax saharicus)” (International Journal of Molecular Sciences, 2020).

The subject of data set [1] is S. enterica (serotype Enteritidis). On the procedure:
(§1) Antibacterial activity of temporin-SHe was evaluated against Gram-positive bacteria including S. aureus strains (ATCC 25923, ST1065), antibiotic-resistant S. aureus strains (ATCC 43300, ATCC BAA-44), E. faecalis (ATCC 29212), B. megaterium, and L. ivanovii (Li4pVS2), and Gram-negative bacteria including E. coli strains (ATCC 25922, ATCC 35218, ML-35p), S. enterica (serotype Enteritidis), P. aeruginosa (ATCC 27853), A. baumannii (ATCC 19606) and K. pneumoniae (ATCC 13883). Antifungal activity was evaluated against C. albicans (ATCC 90028), C. parapsilosis (ATCC 22019) and S. cerevisiae. ATCC strains were purchased from American-Type Culture Collection (ATCC, Virginia, VA, USA). Antiparasitic activity was determined against promastigotes of several species of Leishmania responsible for visceral, cutaneous and mucocutaneous leishmaniases: L. infantum (strain MHOM/MA/67/ITMAP-263), L. major (strain MHOM/SU/73/5-ASKH), and L. braziliensis (strain MHOM/BR/75/M2904), respectively. Cytotoxicity was assessed against human red blood cells and THP-1 monocytes. Peripheral blood was obtained from healthy adult donors (Établissement Français du Sang, Paris, France). All donors signed informed consent allowing the use of their blood for research purposes.
(§2) Antimicrobial activity was assessed with a liquid growth inhibition assay performed according to a previously described protocol using the Clinical and Laboratory Standards Institute (CLSI) guidelines. Briefly, in 96-well microtitration plates, mid-log-phase bacteria diluted to 10^6 CFU/mL in Mueller–Hinton (MH) broth were added to different concentrations of synthetic temporin-SHe (1–200 µM, final concentrations) and incubated at 37 °C for 18–20 h, under shaking (150 rpm). For E. faecalis, L. ivanovii and yeasts/fungi, 10^6 CFU/mL suspensions were prepared in LB broth, brain heart infusion (BHI) medium and Yeast Peptone Dextrose (YPD) medium, respectively, and incubation was performed at 30 °C for yeasts/fungi. […] MIC values represent the average of three independent experiments, each performed in triplicate with negative (no peptide) and positive (formaldehyde 0.7%) controls.

The test system of data set [2] is all tested Gram-positive bacteria. The note with it: range over all tested Gram-positive bacteria. As for the experimental part: as §1, §2
For data set [3], the system named is S. aureus ATCC BAA-44. On the procedure: as §1, §2
Data set [4] relates to L. ivanovii (Li4pVS2). The note with it: liquid growth inhibition (CLSI), 10^6 CFU/mL in brain heart infusion (BHI) medium, 37 °C, 18–20 h, OD 630 nm; mean of three independent experiments in triplicate. On the procedure: as §1, §2
Data set [5] concerns E. coli ML-35p. Kind of data set: Membrane permeabilization assay (ONPG hydrolysis). Format: cell-based, Escherichia coli. Particulars: increasing peptide concentrations, 2.5 mM ONPG in PBS, 37 °C. As for the experimental part:
The ability of temporin-SHe to permeabilize bacterial cytoplasmic membrane was determined using the Gram-negative strain E. coli ML-35p and the Gram-positive strain S. aureus ST1065, as described. Briefly, after incubation of bacteria (37 °C) in 96-well plates with PBS containing 2.5 mM o-nitrophenyl-β-D-galactopyranoside (ONPG) and different concentrations of temporin-SHe, the production of o-nitrophenol (ONP) resulting from hydrolysis of ONPG by intracytoplasmic β-galactosidase was monitored at 405 nm according to the time (Fluostar Galaxy plate reader, BMG Labtech, Champigny-sur-Marne, France). Wells containing bacteria and ONPG, with no peptide, were used as negative control. Two independent experiments were performed in triplicate. Results are from a representative experiment and were expressed as the mean ± S.D.

In data set [6] the test system is E. faecalis ATCC 29212. Format: cell-based, Enterococcus faecalis.
Protocol: Antimicrobial activity was assessed with a liquid growth inhibition assay performed according to a previously described protocol [14] using the Clinical and Laboratory Standards Institute (CLSI) guidelines. Briefly, in 96-well microtitration plates, mid-log-phase bacteria diluted to 10^6 CFU/mL in Mueller–Hinton (MH) broth were added to different concentrations of synthetic temporin-SHe (1–200 µM, final concentrations) and incubated at 37 °C for 18–20 h, under shaking (150 rpm). For E. faecalis, L. ivanovii and yeasts/fungi, 10^6 CFU/mL suspensions were prepared in LB broth, brain heart infusion (BHI) medium and Yeast Peptone Dextrose (YPD) medium, respectively, and incubation was performed at 30 °C for yeasts/fungi. […] MIC values represent the average of three independent experiments, each performed in triplicate with negative (no peptide) and positive (formaldehyde 0.7%) controls.
Data set [7] deals with human THP-1 monocytes. Kind of data set: Cytotoxicity, MTT assay. Particulars: THP-1, 72 h, 37 °C, calculated mean from dose–response curves. As for the experimental part: Hemolytic activity of temporin-SHe was determined against human red blood cells (RBCs), as described in [13]. After incubating the peptide (1–200 µM, final concentrations) with RBCs (2 × 10^7 cells) in 100 µL PBS for 1 h at 37 °C, centrifugation was completed (12,000× g, 15 s) and the absorbance of the supernatant was measured at 450 nm. RBCs suspended in PBS or 0.1% (v/v) Triton X-100 yielded an absorbance associated with 0% and 100% hemolysis, respectively. The percentage of hemolysis was calculated as follow: Hemolysis (%) = [A450 (RBCs with peptide)–A450 (RBCs in PBS)]/[A450 (RBCs with Triton X-100)–A450 (RBCs in PBS)]. Cytotoxicity of temporin-SHe was also assessed on human leukemia monocyte cell line THP-1. Briefly, monocytes (6.25 × 10^5 cells/mL) were incubated with different peptide concentrations (3–50 µM, final concentrations) for 72 h at 37 °C, then cell viability was determined by the MTT assay according to a previously described protocol. Results were expressed as the mean of two independent experiments performed in triplicate.

Regarding FLPALAGIAGLLGKIF-NH2 [Temporin-SHe], the MIC in data set [1] amounted to 100 µM; in data set [3], 3.12 µM; in data set [4], 5 µM; in data set [6], 12.5 µM. The substance further had an MIC range in data set [2] of 1.56 to 12.5 µM. Further, the “cytoplasmic membrane permeabilization (ONP production, A405)” value in data set [5] is “time- and concentration-dependent manner”. Besides, the “LC50 (lethal concentration 50)” value in data set [7] is given as 11.4 µM.
